Experiments:
PKCα = target: T1, PKCα (Homo sapiens, UniProt P17252); assay: PMA mediated PKCα sub-cellular translocation, measured by kinase activity after photocleavable antibody isolation; format: cell-based; conditions: cultured HeLa cells, 200 nM PMA for 5 min, detergent fractionated; based on kinase activity of isolated PKCα; n=4
T1 construct: isolate and photo-release endogenous PKCa from the undiluted detergent fractionated HeLa cell extracts; endogenous in cells; host or cells: HeLa (ATCC)
Experimental: FIG. 20. Phorbol ester (PMA) mediated protein kinase Cα (PKCα) sub-cellular translocation as measured by functional activity following isolation with photocleavable antibodies. Cultured HeLa cells were stimulated with 200 nM PMA for 5 min and detergent fractionated into the cytosol and membrane compartments prior to isolation and purification with the photocleavable antibodies.
Cultured HeLa cells (ATCC; Manassas, Va.) were stimulated for 5 min with 200 nM Phorbol-12-Myristate-13-Acetate (PMA; EMD Biosciences, Inc., San Diego, Calif.) and subsequently detergent fractionated into sub-cellular compartments according to reported procedures [Ramsby et al. (1994) Electrophoresis 15, 265-277; Ramsby & Makowski. (1999) Methods Mol Biol 112, 53-66; Chiang et al. (2000) J Biochem Biophys Methods 46, 53-68]. PMA is a potent activator of PKCα and is well known to cause translocation of the kinase from the cytosolic to the membrane sub-cellular compartments [Ross & Joyner. (1997) Endothelium 5, 321-332; Bazan & Rapoport. (1996) JPharmacol Toxicol Methods 36, 87-95; Yazlovitskaya & Melnykovych. (1995) Cancer Lett 88, 179-183]. […]

MDM2 = target: T2, MDM2 (Homo sapiens, UniProt Q00987); assay: p53-MDM interaction assay, complexes pre-formed before contact photo-transfer; format: binding; conditions: complex formed in solution, captured on beads, contact photo-transferred
T2 construct: polyhistidine (C); made in house; host or cells: rabbit reticulocyte lysate, cell-free (MDM2)
T2 sequence (Q00987 whole entry): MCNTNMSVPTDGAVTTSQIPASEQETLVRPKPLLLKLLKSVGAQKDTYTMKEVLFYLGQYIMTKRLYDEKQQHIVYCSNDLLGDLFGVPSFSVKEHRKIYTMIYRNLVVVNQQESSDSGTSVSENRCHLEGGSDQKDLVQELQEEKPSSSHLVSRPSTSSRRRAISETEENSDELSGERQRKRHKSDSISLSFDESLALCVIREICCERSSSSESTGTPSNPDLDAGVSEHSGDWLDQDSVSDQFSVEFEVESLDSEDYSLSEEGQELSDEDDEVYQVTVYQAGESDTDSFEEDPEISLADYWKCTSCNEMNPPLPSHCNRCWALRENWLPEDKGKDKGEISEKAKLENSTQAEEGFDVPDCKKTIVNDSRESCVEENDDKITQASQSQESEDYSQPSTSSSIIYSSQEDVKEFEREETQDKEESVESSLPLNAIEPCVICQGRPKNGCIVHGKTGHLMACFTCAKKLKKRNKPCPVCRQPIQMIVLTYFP
Experimental: All steps were performed at +4° C. or on an ice water bath and all reagents and samples were also kept under these conditions during the procedure. […] To facilitate addition of small bead volumes to the samples, the beads were initially prepared to a 10% (v/v) bead suspension with 5 mM DTT in PBS. The samples, now 80 μL each, were then mixed with 10 μL of the 10% (v/v) bead suspension corresponding to addition of 1 μL packed bead volume. After capture on the NeutrAvidin beads for 1 hr, beads were washed by mixing 3× briefly (briefly=5 sec vortex mix) in 400 bead volumes per wash of PBS pH 7.5 and 5 mM DTT. The washing procedure was performed in batch mode using 0.45 micron pore size, PVDF membrane, micro-centrifuge Filtration Devices to facilitate manipulation of the small volumes of affinity matrix (˜100 micron beads) and exchange the buffers (Ultrafree-MC Durapore Micro-centrifuge Filtration Devices, 400 μL capacity; Millipore, Billerica, Mass.). Prior to contact photo-transfer of the captured and isolated proteins, the washed pellet of 1 μL of NeutrAvidin agarose beads was suspended in a final volume of 50 μL of 50% glycerol and 5 mM DTT in PBS thereby resulting in a 2% (v/v) bead suspension.

Molecule | PKCα distribution, cytosol (PKCα) [%] | PKCα distribution, membrane (PKCα) [%] | binding of cell-free expressed BODIPY-FL p53 probe to MDM bait (MDM2)
CCCCCCCCCCCCCC(=O)O[C@@H]1[C@@H](C)[C@@]2(O)[C@@H](C=C(CO)C[C@]3(O)C(=O)C(C)=C[C@@H]23)[C@@H]2C(C)(C)[C@]12OC(C)=O [PMA, Phorbol-12-Myristate-13-Acetate] | 16±4 | 84±3 | –
p53 probe: cell-free expressed p53 labeled only with BODIPY-FL using BODIPY-FL-tRNA COMPLETE | – | – | selective binding
